Where two headings read alike, the source gives them in different places.
Target: T1, CAT-1 (carnitine acyltransferase 1) (Rattus norvegicus, UniProt Q63704)
T1 construct: This preparation is used as the isolated mitochondrial preparation; from tissue; host or cells: rat heart (atria removed), isolated mitochondria
T1 sequence (Q63704 1-772): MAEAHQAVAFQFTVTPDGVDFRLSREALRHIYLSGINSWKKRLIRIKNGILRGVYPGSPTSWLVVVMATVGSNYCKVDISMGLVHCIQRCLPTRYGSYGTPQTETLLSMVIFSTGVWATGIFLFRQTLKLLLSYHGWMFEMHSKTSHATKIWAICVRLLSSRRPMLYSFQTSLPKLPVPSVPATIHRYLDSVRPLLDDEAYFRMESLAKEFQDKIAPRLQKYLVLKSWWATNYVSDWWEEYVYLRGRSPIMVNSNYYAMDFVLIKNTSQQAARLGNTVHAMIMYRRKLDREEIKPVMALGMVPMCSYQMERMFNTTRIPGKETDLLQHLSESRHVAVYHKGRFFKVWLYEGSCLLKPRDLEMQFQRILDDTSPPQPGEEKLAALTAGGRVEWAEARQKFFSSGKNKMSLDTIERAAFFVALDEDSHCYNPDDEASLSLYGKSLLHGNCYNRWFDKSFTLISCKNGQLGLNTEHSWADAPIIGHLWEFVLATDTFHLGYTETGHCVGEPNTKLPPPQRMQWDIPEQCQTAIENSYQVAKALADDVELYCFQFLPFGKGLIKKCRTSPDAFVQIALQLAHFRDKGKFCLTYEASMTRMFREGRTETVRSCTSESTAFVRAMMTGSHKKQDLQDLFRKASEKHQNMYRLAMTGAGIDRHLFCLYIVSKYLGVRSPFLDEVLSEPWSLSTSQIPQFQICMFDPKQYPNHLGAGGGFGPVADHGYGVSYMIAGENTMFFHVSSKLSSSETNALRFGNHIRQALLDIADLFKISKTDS
Assay: Primary Screen--Inhibition of CAT-1 in isolated mitochondria
Type: biochemical
Parameters: inhibition: dose or concentration left out as unconfirmed

[1] = rat heart mitochondria, reduction of palmitoyl carnitine formation by 50%, read-out: Primary Screen IC50

| SMILES | IC50 [1] | further results |
| --- | --- | --- |
| O=C(O)C(=O)c1ccc(OCc2ccc3ccccc3c2)cc1 [Example 155, 4-[(2-naphthalenyl)methoxy]-alpha-oxobenzeneacetic acid] | 0.22 µM | – |
| O=C(O)C(=O)c1ccc(OCCCCCCc2cccc(OCc3ccccc3)c2OCc2ccccc2)cc1 [Example 259, 4-[6-[2,3-bis-(phenylmethoxy)phenyl]hexyloxy]-alpha-oxobenzeneacetic acid] | 1.2 µM | – |
| O=C(O)C(=O)c1ccc(OCCCn2c(=O)ccc3ccccc32)cc1 [Example 264, 4-[3-(1,2-dihydro-2-oxo-1-quinolinyl)propoxy]-alpha-oxobenzeneacetic acid] | 12 µM | – |
| O=C(O)C(=O)c1ccc(OCc2cc3ccccc3o2)cc1 [Example 141, 4-[[2-benzofuranyl)methoxy]-alpha-oxobenzeneacetic acid] | 0.7 µM | – |
| O=C(O)C(=O)c1ccc(OCC(=O)N2CCc3ccccc3C2)cc1 [Example 251, 4-[2-oxo-2-(1,2,3,4-tetrahydro-2-isoquinolinyl)ethoxy]-alpha-oxobenzeneacetic acid] | 0.4 µM | – |
| CC(=O)c1ccc(OCCCOc2ccc(C(=O)C(=O)O)cc2)cc1O [Example 273, 4-[3-(4-acetyl-3-hydroxyphenoxy)propoxy]-alpha-oxobenzeneacetic acid] | 0.73 µM | – |
| O=C(O)C(=O)c1ccc(OC/C=C/c2ccccc2)cc1 [Example 31, (E)-alpha-oxo-4-[(3-phenyl-2-propenyl)oxy]benzeneacetic acid] | 0.1 µM | – |
| O=C(O)C(=O)c1ccc(OCCOc2cc3ccccc3cc2OCCOc2ccccc2)cc1 [Example 116, alpha-oxo-4-[[2-[3-(2-phenoxyethoxy)-2-naphthalenyloxy]ethyl]oxy]benzeneacetic acid] | 0.65 µM | – |
| O=C(O)C(=O)c1ccc(OCCOc2ccc(Cl)cc2)cc1 [Example 45, 4-[[2-(4-chlorophenoxy)ethyl]oxy]-alpha-oxobenzeneacetic acid] | 0.3 µM | – |
| O=C(O)C(=O)c1ccc(OCCOc2ccc(-c3ccccc3)cc2)cc1 [Example 57, 4-[[2-[4-(1,1'-biphenyl)oxy]ethyl]oxy]-alpha-oxobenzeneacetic acid] | 5 µM | – |
| O=C(O)C(=O)c1cc(F)c(OCCOc2ccc3ccccc3c2)c(F)c1 [Example 203, 3,5-difluoro-4-[2-(2-naphthalenyloxy)ethoxy]-alpha-oxobenzeneacetic acid] | – | inhibition: 37% |
| O=C(O)C(=O)c1ccc(OCCOc2ccnc3ccccc23)cc1 [Example 131, alpha-oxo-4-[[2-(4-quinolyloxy)ethyl]oxy]benzeneacetic acid] | 0.96 µM | – |
| CC(C)(C)c1cc(C(=O)CCCCOc2ccc(C(=O)C(=O)O)cc2)cc(C(C)(C)C)c1O [Example 266, 4-[5-[3,5-bis(1,1-dimethylethyl)-4-hydroxyphenyl]-5-oxopentyloxy]-alpha-oxobenzeneacetic acid] | – | inhibition at 10 µM (@ 10 μM): 48% |
| O=C(O)C(=O)c1ccc(OCCOc2ccccc2F)cc1 [Example 39, 4-[[2-(2-fluorophenoxy)ethyl]oxy]-alpha-oxobenzeneacetic acid] | 0.6 µM | – |
| O=C(O)C(=O)c1ccc(OCCCc2ccc(F)cc2)cc1 [Example 27, 4-[[3-(4-fluorophenyl)propyl]oxy]-alpha-oxobenzeneacetic acid] | 3 µM | – |
| O=C(O)/C(=N\OCc1ccccc1)c1ccc(OCCOc2ccc3ccccc3c2)s1 [Example 316, (E)-5-[2-(2-naphthalenyloxy)ethoxy]-alpha-[(phenylmethoxy)imino]-2-thiopheneacetic acid] | 0.5 µM | – |
| O=C(O)C(=O)c1ccc(OCCOc2cc3ccccc3cc2OCCO)cc1 [Example 118, 4-[[2-[3-(2-hydroxyethoxy)-2-naphthalenyloxy]ethyl]oxy]-alpha-oxobenzeneacetic acid] | 0.25 µM | – |
| O=C(O)C(=O)c1ccc(OCC(=O)c2ccccc2-c2ccccc2)cc1 [Example 288, 4-[2-[[1,1'-biphenyl]-2-yl]-2-oxoethoxy]-alpha-oxobenzeneacetic acid] | 1.4 µM | – |
| COc1ccc(OCCOc2ccc(C(=O)C(=O)O)cc2)cc1 [Example 61, 4-[[2-(4-methoxyphenoxy)ethyl]oxy]-alpha-oxobenzeneacetic acid] | 2 µM | – |
| O=C(O)C(=O)c1ccc(SCCOc2ccc3ccccc3c2)cc1 [Example 149, 4-[[2-(2-naphthalenyloxy)ethyl]thio]-alpha-oxobenzeneacetic acid] | 0.08 µM | – |
| O=C(O)C(=O)c1ccc(OCCOc2ccc3cc4ccccc4cc3c2)cc1 [Example 108, 4-[[2-(2-anthracenyloxy)ethyl]oxy]-alpha-oxobenzeneacetic acid] | 0.2 µM | – |

| SMILES | IC50 [1] | further results |
| --- | --- | --- |
| O=C(O)C(=O)c1ccc(OCCOc2cc3ccccc3c3ccccc23)cc1 [Example 110, alpha-oxo-4-[[2-(9-phenanthrenyloxy)ethyl]oxy]benzeneacetic acid] | – | IC50: 0.1 µM |
| O=C(O)C(=O)c1ccc(OCCCNC(=O)c2ccc3ccccc3c2)cc1 [Example 140, 4-[[3-(2-naphthoylamino)propyl]oxy]-alpha-oxobenzeneacetic acid] | 0.15 µM | – |
| O=C(O)C(=O)c1c(Cl)cc(OCCOc2ccc3ccccc3c2)cc1Cl [Example 191, 2,6-dichloro-4-[2-(2-naphthalenyloxy)ethoxy]-alpha-oxobenzeneacetic acid] | 6.7 µM | – |
| O=C(O)C(=O)c1ccc(OCCCOc2ccccc2)cc1 [Example 69, alpha-oxo-4-[[(3-phenoxy)propyl]oxy]benzeneacetic acid] | 2 µM | – |
| COC(=O)C(=O)c1ccc(OCCOc2ccc3cc(OC(C)=O)ccc3c2)cc1 [Example 138, 4-[[2-[6-(Acetyloxy)-2-naphthalenyloxy]ethyl]oxy]-alpha-oxobenzeneacetic acid methyl ester] | 8.9 µM | – |
| O=C(O)C(=O)c1ccc(OCC#Cc2ccccc2)cc1 [Example 35, alpha-oxo-4-[(3-phenyl-2-propynyl)oxy]benzeneacetic acid] | 0.4 µM | – |
| O=C(O)C(=O)c1ccc(OCCOc2ccc(C(F)(F)F)cc2)cc1 [Example 51, alpha-oxo-4-[[2-(4-trifluoromethylphenoxy)ethyl]oxy]benzeneacetic acid] | 0.8 µM | – |
| O=C(O)C(=O)c1ccc(OCCc2ccccc2)cc1 [Example 21, 4-[(2-phenylethyl)oxy]-alpha-oxobenzeneacetic acid] | 12 µM | – |
| O=C(O)C(=O)c1ccc(OCCCCCOc2ccccc2)cc1 [Example 73, alpha-oxo-4-[[(5-phenoxy)pentyl]oxy]benzeneacetic acid] | 5 µM | – |
| O=C(O)C(=O)c1ccc(OCC(O)COc2ccccc2)cc1 (racemic) [Example 80, rac.-4-[[(2-hydroxy-3-phenoxy)propyl]oxy]-alpha-oxobenzeneacetic acid] | 8 µM | – |
| CCCc1c(OCCCOc2ccc(C(=O)C(=O)O)cc2)ccc(C(=O)OC)c1O [Example 268, 4-[3-[3-hydroxy-4-(methoxycarbonyl)-2-propylphenoxy)propoxy]-alpha-oxobenzeneacetic acid] | 0.23 µM | – |
| O=C(O)C(=O)c1ccc(NCCOc2ccc3ccccc3c2)cc1 [Example 168, 4-[[2-(2-naphthalenyloxy)ethyl]amino]-alpha-oxobenzeneaceticacid] | 0.7 µM | – |
| O=C(O)C(=O)c1ccc(OCCCCc2ccncc2)cc1 [Example 125, alpha-oxo-4-[4-(4-pyridinyl)butoxy]benzeneacetic acid] | 2 µM | – |
| O=C(O)C(=O)c1ccc(OCCCCCCOc2ccccc2)cc1 [Example 75, alpha-oxo-4-[[(6-phenoxy)hexyl]oxy]benzeneacetic acid] | 10 µM | – |
| O=C(O)C(=O)c1ccc(OCCOc2ccc(C(=O)C(=O)O)cc2)cc1 [Example 55] | 6 µM | – |
| O=C(O)C(=O)c1cc(Cl)c(OCCOc2ccc3ccccc3c2)c(Cl)c1 [Example 189, 3,5-dichloro-4-[2-(2-naphthalenyloxy)ethoxy]-alpha-oxobenzeneacetic acid (6:1) molar benzene solvate] | – | inhibition: 28% |
| Cc1cc(OCCOc2ccc3ccccc3c2)ccc1C(=O)C(=O)O [Example 183, 2-methyl-4-[2-(2-naphthalenyloxy)ethoxy]-alpha-oxobenzeneacetic acid (4:1) hydrate] | 4.7 µM | – |
| CN(C)/N=C(\C(=O)O)c1ccc(OCCOc2ccc3ccccc3c2)cc1 [Example 321, (Z)-alpha-(dimethylhydrazono)-4-[2-(2-naphthalenyloxy)ethoxy]benzeneaceticacid] | 6.5 µM | – |
| Cc1nnc2n1-c1sc(C#CCOc3ccc(C(=O)C(=O)O)cc3)cc1C(c1ccccc1Cl)=NC2 [Example 294, 4-[3-[4-(2-chlorophenyl)-9-methyl-6H-thieno[3,2-f][1,2,4]triazolo[4,3-a][1,4]diazepin-2-yl]-2-propynyloxy]-alpha-oxobenzeneacetic acid] | – | IC50: 0.3 µM |
| O=C(O)C(=O)c1ccc(OC/C=C\c2ccccc2)cc1 [Example 33, (Z)-alpha-oxo-4-[(3-phenyl-2-propenyl)oxy]benzeneacetic acid] | 1 µM | – |
